# Results: US20230181474A1, “TABLET COMPRISING OPICAPONE” (Ono Pharmaceutical Co., Ltd., priority 2020, published 2023)
# Experiment: Evaluation of particle size by dynamic particle image analysis (iSpect DIA-10)
# Assay type: physicochemical
# Conditions: dispersion medium 10% polysorbate 20 aqueous solution
# Text: In the present specification, “maximum length” refers to a maximum length between two points on a contour of a particle, and this may be measured by the dynamic image analysis method. An example of the equipment used for measurement is the dynamic particle image analysis system iSpect DIA-10 (Shimadzu Corporation). In the present invention, the maximum length of particles of opicapone or a pharmaceutically acceptable salt thereof in terms of D50 value is less than 46 µm, preferably 45 µm or less, more preferably 40 µm or less, even more preferably 35 µm or less, and particularly preferably 30 µm or less or 29 µm or less. In the present invention, the maximum length of particles of opicapone or a pharmaceutically acceptable salt thereof in terms of D90 value is, for example, less than 111 µm, preferably 110 µm or less, more preferably 100 µm or less, even more preferably 90 µm or less, and particularly preferably 80 µm or less.
# In the present specification, “equivalent circle diameter” refers to the diameter of a circle that has the same area as the projected area of a particle image, and this may be measured by the dynamic image analysis method. An example of the equipment used for measurement is the dynamic particle image analysis system iSpect DIA-10 (Shimadzu Corporation).
# The particle sizes of the non-micronized product and the micronized products A1 to A4 prepared in Example 1 using the opicapone drug substance were measured under the following conditions.
# • Measurement equipment: Dynamic particle image analysis system iSpect DIA-10 (Shimadzu Corporation) • Evaluation items: Equivalent circle diameter, maximum length • Dispersion medium: 10% polysorbate 20 aqueous solution • Sample: Approximately 10 mg of the measurement sample was placed in 1 ml of the dispersion medium, suspended, and then diluted 100-fold.
Equivalent Circle Diameter D10,Equivalent Circle Diameter D50,Equivalent Circle Diameter D90,Maximum Length D10,Maximum Length D90,Maximum Length D50,SMILES
6 µm,13 µm,23 µm,16 µm,111 µm,–,Cc1nc(Cl)c(-c2noc(-c3cc(O)c(O)c([N+](=O)[O-])c3)n2)c(C)c1Cl [Non-micronized Product]
7 µm,11 µm,18 µm,16 µm,60 µm,26 µm,Cc1nc(Cl)c(-c2noc(-c3cc(O)c(O)c([N+](=O)[O-])c3)n2)c(C)c1Cl [Micronized Product A2]
7 µm,11 µm,–,16 µm,63 µm,28 µm,Cc1nc(Cl)c(-c2noc(-c3cc(O)c(O)c([N+](=O)[O-])c3)n2)c(C)c1Cl [Micronized Product A 1]
7 µm,11 µm,19 µm,15 µm,73 µm,–,Cc1nc(Cl)c(-c2noc(-c3cc(O)c(O)c([N+](=O)[O-])c3)n2)c(C)c1Cl [Micronized Product A3]
